Laboratory results from patent publication US20060122279A1, “Hydrophobic polyamine amides as potent lipopolysaccharide sequestrants” (priority 2004, published 2006).
Values joined by “and” are separate entries in the source; they are usually repeats but may differ in a detail not shown here. Identical values can stand only once. Marks after values point to notes of the source that are not given here.

System: CF-1 mice
Experiment: Mouse lethality model of endotoxic shock (D-galactosamine sensitized, LPS challenge)
Type: in vivo
Conditions: for time window of protection, in words: 200 ng/mouse LPS
Protocol: Based on the results of the displacement assays, NO and cytokine inhibition data, 8 is elected for detailed evaluation in animal experiments. […] In all experiments reported herein, a supralethal dose of 200 ng per mouse, in a final volume of 0.2 ml saline is used. The dose-response of protection afforded by 8 is depicted in Table 4. Previous studies with labile spermine conjugates such as DOSPER^37 had shown the window of protection to be very short, a 15 minute window of protection. Compound 8, with its greater anticipated hydrolytic stability, is examined to see if it affords a more extended time-window of protection. 200 μg of 8 in a final volume of 0.2 ml injections are administered intraperitoneally at times of −6, −4, −2, 0, +1, and +2 relative to time-zero, the time at which all mice are challenged with 200 ng/mouse LPS injections. […] Testing to see if in this treatment regime, which is characterized by a slow, gradual systemic absorption from the site of injection, a longer duration of protection would be observed is carried out. Lethality is once again assessed 24 hours following the final injection.
Female, outbred, 9- to 11-week-old CF-1 mice (Charles River, Wilmington, Mass.) weighing 22-28 g are used as described elsewhere.^37 Upon arrival, the mice are allowed to acclimatize for a week prior to experimentation, housed 5 per cage in a controlled environment at the AALAC-accredited University of Kansas Animal Care Facility, and allowed access to mouse chow and water ad libitum. […] In experiments designed to test dose-response effects of the acyl-spermines in affording protection against LPS-induced lethality, mice receive graded doses of compound diluted in saline, i.p., in one flank, immediately before a supralethal (200 ng) LPS challenge, which is administered as a separate i.p. injection into the other flank. In experiments in which the temporal window of protection is to be examined, a fixed dose of 200 μg/mouse of compound is administered at various times, before, or after supralethal (200 ng/mouse) LPS challenge. Lethality is determined at 24 h post LPS challenge.

Compound: CCCCCCCCCCCCCCCCCC(=O)NCCCCC(N)C(=O)NCCCNCCCCNCCCN [Compound 8, D-Lys-ε-(stearoyl)-N^1-spermine]
- No. of live mice/total no. of mice tested (10 μg/mouse i.p., immediately before 200 ng/mouse LPS, lethality at 24 h): 0/5
- No. of live mice/total no. of mice tested (50 μg/mouse i.p., immediately before 200 ng/mouse LPS, lethality at 24 h): 1/5
- No. of live mice/total no. of mice tested (100 μg/mouse i.p., immediately before 200 ng/mouse LPS, lethality at 24 h): 4/5*
- time window of protection, in words (200 μg i.p.): significant protection up to 6 h prior to LPS challenge
- No. of live mice/total number of mice tested (200 μg intraperitoneally at 0 h relative to LPS (200 ng/mouse)): 4/5*
- No. of live mice/total number of mice tested (200 μg intraperitoneally at +1 h relative to LPS (200 ng/mouse)): 0/5*
- No. of live mice/total number of mice tested (200 μg intraperitoneally at +2 h relative to LPS (200 ng/mouse)): 2/5
- No. of live mice/total number of mice tested (200 μg intraperitoneally at −2 h relative to LPS (200 ng/mouse)): 4/5*
- No. of live mice/total number of mice tested (200 μg intraperitoneally at −4 h relative to LPS (200 ng/mouse)): 4/5*
- No. of live mice/total number of mice tested (200 μg intraperitoneally at −6 h relative to LPS (200 ng/mouse)): 3/5
- time window of protection, in words (200 μg subcutaneous): significant protection even when the compound is administered 16 h ahead of LPS challenge
- No. of live mice/total no. of mice tested (200 μg subcutaneously at 0 h relative to LPS (200 ng/mouse)): 1/5
- No. of live mice/total no. of mice tested (200 μg subcutaneously at +2 h relative to LPS (200 ng/mouse)): 1/5
- No. of live mice/total no. of mice tested (200 μg subcutaneously at −4 h relative to LPS (200 ng/mouse)): 5/5*
- No. of live mice/total no. of mice tested (200 μg subcutaneously at −8 h relative to LPS (200 ng/mouse)): 3 of the 5 and 3/5
- No. of live mice/total no. of mice tested (200 μg subcutaneously at −12 h relative to LPS (200 ng/mouse)): 3 of the 5 and 3/5
- No. of live mice/total no. of mice tested (200 μg subcutaneously at −16 h relative to LPS (200 ng/mouse)): 3 of the 5 and 3/5
- No. of live mice/total no. of mice tested (200 μg subcutaneously at −24 h relative to LPS (200 ng/mouse)): Two of the 5 and 2/5
- No. of live mice/total no. of mice tested (200 μg/mouse i.p., immediately before 200 ng/mouse LPS, lethality at 24 h): 5/5*
